Measured values reported in PubChem BioAssay (NCI).
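Test compounds were applied to cells in 96-well plates for 48 hours at 5 doses. Here, GI50 denotes the concentration required for 50% inhibition of growth. TGI is the concentration that stops growth completely.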

Key:
Experiment in all cases: DTP human tumour cell line panel, 48 h
A549 NSCLC = system: A549 NSCLC
PC-3 prostate = system: PC-3 prostate
HOP-92 NSCLC = system: HOP-92 NSCLC
CAKI-1 renal = system: CAKI-1 renal
RPMI-8226 leukemia = system: RPMI-8226 leukemia
U251 CNS = system: U251 CNS
SF-268 CNS = system: SF-268 CNS
UACC-257 melanoma = system: UACC-257 melanoma
HT29 colon = system: HT29 colon
HL-60(TB) leukemia = system: HL-60(TB) leukemia
MDA-MB-435 = system: MDA-MB-435
MOLT-4 leukemia = system: MOLT-4 leukemia
SK-OV-3 ovarian = system: SK-OV-3 ovarian
HS 578T breast = system: HS 578T breast
NCI-H226 lung = system: NCI-H226 lung
UO-31 renal = system: UO-31 renal
OVCAR-4 ovarian = system: OVCAR-4 ovarian
A498 renal = system: A498 renal
MCF7 breast = system: MCF7 breast
T-47D breast = system: T-47D breast
M14 melanoma = system: M14 melanoma
NCI-H23 lung = system: NCI-H23 lung
SF-539 CNS = system: SF-539 CNS
UACC-62 melanoma = system: UACC-62 melanoma
ACHN renal = system: ACHN renal
SNB-75 CNS = system: SNB-75 CNS
SK-MEL-2 melanoma = system: SK-MEL-2 melanoma
NCI/ADR-RES ovarian = system: NCI/ADR-RES ovarian
CCRF-CEM leukemia = system: CCRF-CEM leukemia
SF-295 CNS = system: SF-295 CNS
SK-MEL-5 melanoma = system: SK-MEL-5 melanoma
BT-549 breast = system: BT-549 breast
OVCAR-3 ovarian = system: OVCAR-3 ovarian
SW-620 colon = system: SW-620 colon
786-0 renal = system: 786-0 renal
COLO 205 colon = system: COLO 205 colon
NCI-H522 lung = system: NCI-H522 lung
HCC-2998 colon = system: HCC-2998 colon
HCT-116 colon = system: HCT-116 colon
SR leukemia = system: SR leukemia
KM12 colon = system: KM12 colon
HCT-15 colon = system: HCT-15 colon
NCI-H460 lung = system: NCI-H460 lung
HOP-62 NSCLC = system: HOP-62 NSCLC
DU-145 prostate = system: DU-145 prostate
LOX IMVI melanoma = system: LOX IMVI melanoma
SNB-19 CNS = system: SNB-19 CNS
SN12C renal = system: SN12C renal
MDA-MB-231 breast = system: MDA-MB-231 breast
IGROV1 ovarian = system: IGROV1 ovarian
TK-10 renal = system: TK-10 renal
SK-MEL-28 melanoma = system: SK-MEL-28 melanoma
K-562 leukemia = system: K-562 leukemia
OVCAR-8 ovarian = system: OVCAR-8 ovarian
OVCAR-5 ovarian = system: OVCAR-5 ovarian
RXF 393 renal = system: RXF 393 renal
EKVX NSCLC = system: EKVX NSCLC

COc1ccc2nc3cc(Cl)ccc3c(NCCCCCN3CCCCC3)c2c1
GI50 (A549 NSCLC): 68 nM
TGI (A549 NSCLC): 2.73 µM
GI50 (PC-3 prostate): 1070 nM
TGI (PC-3 prostate): 4.51 µM
GI50 (HOP-92 NSCLC): 1620 nM
TGI (HOP-92 NSCLC): 4.1 µM
GI50 (CAKI-1 renal): 1330 nM
TGI (CAKI-1 renal): 4.03 µM
GI50 (RPMI-8226 leukemia): 1950 nM
TGI (RPMI-8226 leukemia): 6.32 µM
GI50 (U251 CNS): 1310 nM
TGI (U251 CNS): 3.1 µM
GI50 (SF-268 CNS): 1030 nM
TGI (SF-268 CNS): 2.88 µM
GI50 (UACC-257 melanoma): 1940 nM
TGI (UACC-257 melanoma): 3.77 µM
GI50 (HT29 colon): 33.8 nM
TGI (HT29 colon): 1.59 µM
GI50 (HL-60(TB) leukemia): 1550 nM
TGI (HL-60(TB) leukemia): 3.54 µM
GI50 (MDA-MB-435): 1370 nM
TGI (MDA-MB-435): 2.73 µM
GI50 (MOLT-4 leukemia): 41.6 nM
TGI (MOLT-4 leukemia): 3.12 µM
GI50 (SK-OV-3 ovarian): 1260 nM
TGI (SK-OV-3 ovarian): 3.1 µM
GI50 (HS 578T breast): 1820 nM
TGI (HS 578T breast): 4.5 µM
GI50 (NCI-H226 lung): 1100 nM
TGI (NCI-H226 lung): 3.33 µM
GI50 (UO-31 renal): 1430 nM
TGI (UO-31 renal): 3.7 µM
GI50 (OVCAR-4 ovarian): 86 nM
TGI (OVCAR-4 ovarian): 3.01 µM
GI50 (A498 renal): 11.4 nM
TGI (A498 renal): 1.88 µM
GI50 (MCF7 breast): 40.8 nM
TGI (MCF7 breast): 2.13 µM
GI50 (T-47D breast): 1940 nM
TGI (T-47D breast): 4.58 µM
GI50 (M14 melanoma): 1650 nM
TGI (M14 melanoma): 3.15 µM
GI50 (NCI-H23 lung): 1090 nM
TGI (NCI-H23 lung): 2.85 µM
GI50 (SF-539 CNS): 55.9 nM
TGI (SF-539 CNS): 2.29 µM
GI50 (UACC-62 melanoma): 2070 nM
TGI (UACC-62 melanoma): 3.93 µM
GI50 (ACHN renal): 44.7 nM
TGI (ACHN renal): 2.84 µM
GI50 (SNB-75 CNS): 1270 nM
TGI (SNB-75 CNS): 2.56 µM
GI50 (SK-MEL-2 melanoma): 2220 nM
TGI (SK-MEL-2 melanoma): 4.04 µM
GI50 (NCI/ADR-RES ovarian): 82.5 nM
TGI (NCI/ADR-RES ovarian): 4.24 µM
GI50 (CCRF-CEM leukemia): 73 nM
TGI (CCRF-CEM leukemia): 6.38 µM
GI50 (SF-295 CNS): 50.2 nM
TGI (SF-295 CNS): 1.91 µM
GI50 (SK-MEL-5 melanoma): 1600 nM
TGI (SK-MEL-5 melanoma): 2.96 µM
GI50 (BT-549 breast): 1720 nM
TGI (BT-549 breast): 3.28 µM
GI50 (OVCAR-3 ovarian): 123 nM
TGI (OVCAR-3 ovarian): 2.24 µM
GI50 (SW-620 colon): 36.9 nM
TGI (SW-620 colon): 2.16 µM
GI50 (786-0 renal): 56 nM
TGI (786-0 renal): 1.95 µM
GI50 (COLO 205 colon): 66.8 nM
TGI (COLO 205 colon): 2.32 µM
GI50 (NCI-H522 lung): 1440 nM
TGI (NCI-H522 lung): 3.27 µM
GI50 (HCC-2998 colon): 67.3 nM
TGI (HCC-2998 colon): 2.05 µM
GI50 (HCT-116 colon): 43.5 nM
TGI (HCT-116 colon): 1.91 µM
GI50 (SR leukemia): 31.4 nM
TGI (SR leukemia): 2.13 µM
GI50 (KM12 colon): 57.6 nM
TGI (KM12 colon): 2.7 µM
GI50 (HCT-15 colon): 41.2 nM
TGI (HCT-15 colon): 1.85 µM
GI50 (NCI-H460 lung): 36.1 nM
TGI (NCI-H460 lung): 1450 nM
GI50 (HOP-62 NSCLC): 65.4 nM
TGI (HOP-62 NSCLC): 2.63 µM
GI50 (DU-145 prostate): 55.8 nM
TGI (DU-145 prostate): 2.46 µM
GI50 (LOX IMVI melanoma): 35.5 nM
TGI (LOX IMVI melanoma): 1.44 µM
GI50 (SNB-19 CNS): 1140 nM
TGI (SNB-19 CNS): 5.54 µM
GI50 (SN12C renal): 76.3 nM
TGI (SN12C renal): 4.7 µM
GI50 (MDA-MB-231 breast): 1010 nM
TGI (MDA-MB-231 breast): 3.1 µM
GI50 (IGROV1 ovarian): 88.8 nM
TGI (IGROV1 ovarian): 4.1 µM
GI50 (TK-10 renal): 1570 nM
TGI (TK-10 renal): 3.66 µM
GI50 (SK-MEL-28 melanoma): 1860 nM
TGI (SK-MEL-28 melanoma): 3.67 µM

CN(C)CCNc1ccc(NCCN(C)C)c2c1C(=O)c1ncsc1C2=O
TGI (A549 NSCLC): 31.3 µM
TGI (PC-3 prostate): 38.1 µM
TGI (HOP-92 NSCLC): 29.9 µM
TGI (CAKI-1 renal): 57.5 µM
TGI (RPMI-8226 leukemia): 29.4 µM
TGI (U251 CNS): 29.7 µM
TGI (SF-268 CNS): 39.3 µM
TGI (K-562 leukemia): 34.3 µM
TGI (UACC-257 melanoma): 34.7 µM
TGI (HT29 colon): 19.7 µM
TGI (MDA-MB-435): 27.8 µM
TGI (MOLT-4 leukemia): 5.57 µM
TGI (SK-OV-3 ovarian): 38.8 µM
TGI (OVCAR-8 ovarian): 27.8 µM
TGI (HS 578T breast): 50.3 µM
TGI (NCI-H226 lung): 17.7 µM
TGI (UO-31 renal): 32.2 µM
TGI (OVCAR-4 ovarian): 25.1 µM
TGI (A498 renal): 28.1 µM
TGI (MCF7 breast): 21.3 µM
TGI (T-47D breast): > 100 µM
TGI (M14 melanoma): 36.6 µM
TGI (NCI-H23 lung): 30 µM
TGI (SF-539 CNS): 28.1 µM
TGI (UACC-62 melanoma): 24.6 µM
TGI (ACHN renal): 22.7 µM
TGI (SNB-75 CNS): 33 µM
TGI (SK-MEL-2 melanoma): 42.7 µM
TGI (NCI/ADR-RES ovarian): > 100 µM
TGI (CCRF-CEM leukemia): 10.9 µM
TGI (SF-295 CNS): 26.6 µM
TGI (SK-MEL-5 melanoma): 31.6 µM
TGI (BT-549 breast): 35.1 µM
TGI (OVCAR-3 ovarian): 37.2 µM
TGI (SW-620 colon): 29.7 µM
TGI (786-0 renal): 24 µM
TGI (COLO 205 colon): 31.1 µM
TGI (NCI-H522 lung): 31.7 µM
TGI (HCC-2998 colon): 31.3 µM
TGI (HCT-116 colon): 22.7 µM
TGI (OVCAR-5 ovarian): 55.3 µM
TGI (SR leukemia): 4.39 µM
TGI (KM12 colon): 25.2 µM
TGI (HCT-15 colon): 27.6 µM
TGI (HOP-62 NSCLC): 43.6 µM
TGI (RXF 393 renal): 41 µM
TGI (EKVX NSCLC): 26.4 µM
TGI (DU-145 prostate): 25.9 µM
TGI (LOX IMVI melanoma): 29.5 µM
TGI (SNB-19 CNS): 51 µM
TGI (SN12C renal): 25.7 µM
TGI (MDA-MB-231 breast): 32.2 µM
TGI (IGROV1 ovarian): 28.1 µM
TGI (TK-10 renal): 58.2 µM
TGI (SK-MEL-28 melanoma): 33.7 µM
